In PubChem BioAssay (NCI):
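Results reflect a 48-hour exposure of cells in 96-well plates to compound at five concentrations. TGI is the concentration that stops growth completely.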 Where a SMILES comes first, the peptide text is derived from it. The star is where a group is joined. Boc = CC(C)(C)OC(=O)*; OBn = c1ccc(CO*)cc1

System: 786-0 renal
Assay: inhibition of tumour cell growth, NCI panel, 48 h

| SMILES | TGI [µM] |
| --- | --- |
| Cc1oc2c(c1C)S(=O)(=O)C(C#N)C(c1ccccc1)N2 (stereo unspecified) | > 100 |
| CC(=O)Oc1cc2c(n(C)c1=O)-c1ccccc1C2 | > 100 |
| N#CC(C#N)N=Cc1ccncc1 | > 100 |
| COc1ccc2c(c1)/C(=C\c1c(C)nc3n1CCS3)C(=O)N2 | > 100 |
| CN(C)C=C1C(=O)c2c(Br)sc(Br)c2C1=O | > 100 |
| O=c1[nH]n(Cc2ccccc2Cl)c2ccc([N+](=O)[O-])cc12 | > 100 |
| COc1cc2c[n+](C)c3c4cc5c(cc4ccc3c2cc1OC)OCO5 | 21.7 |
| CCOC(=O)CCC(NC(=O)c1ccc(CNc2nc3ccccc3nc2C(=O)OCC)cc1)C(=O)OCC (stereo unspecified) | > 100 |
| COC(=O)Nc1nc2ccc(S(=O)(=O)NC(CC(C)C)C(=O)OC)cc2[nH]1 (stereo unspecified) | > 100 |
| Cc1cc([C@H](C#N)c2nc3ccccc3[nH]2)nc(Cl)n1 | > 100 |
| OC(CCN1CCCCC1)(c1ccccc1)c1ccccc1 | > 100 |
| COC1CC(C)C(OC)C2=CC(=O)C=C(NC(=O)/C(C)=C/C=C\C(C)C(OC(N)=O)/C(C)=C\C(C)C1OC)C2=O (stereo unspecified) | 2.87 |
| CN(C)C=Nc1cccc2nsnc12 | > 100 |
| CC(=O)O[C@@H]1CC[C@@]2(C)C(CC[C@H]3[C@@H]4CC[C@H]([C@H](C)CCc5nc6ccc(C)cc6[nH]5)[C@@]4(C)CC[C@@H]32)C1 (stereo partly specified) | > 100 |
| COc1cccc(OC/C(N=Cc2cccnc2)=N/NC(=O)c2ccncc2)c1 | > 100 |
| Cc1csc2nc3c(cnn3C)c(=S)n12 | > 100 |
| Cc1ccc(-n2cnc3c(N)nc(N)nc32)cc1 | > 100 |
| Ic1ncnc2c1ncn2C1CCCO1 (stereo unspecified) | > 100 |
| COc1ccc(Nc2nnc(CCCCCCCCc3nnc(Nc4ccc(OC)cc4)o3)o2)cc1 | > 100 |
| O=c1c(C=Nc2ccccc2Cl)c(O)n(-c2ccccc2)c(=O)n1-c1ccccc1 | > 100 |
| CCOC(=O)NNC(=O)C1CSC(c2ccccc2)N1C(C)=O (stereo unspecified) | > 100 |
| O=[n+]1c2ccccc2n([O-])c2ccccc21 | > 100 |
| CC(C)(C)O/C=C1/C(=O)OC2C[C@@H](O[Si](C)(C)C(C)(C)C)CC12 (stereo partly specified) | > 100 |
| CCCCCCCCCCCCCCCCCCNc1ccn(C2OC(COP(=O)(O)OC3CC(n4cc(F)c(=O)[nH]c4=O)OC3COP(=O)(O)OCC3OC(n4ccc(N)nc4=O)C(O)C3O)C(O)C2O)c(=O)n1 (stereo unspecified) | > 58.1 |
| CC(C)C(NC(=O)C(Cc1ccccc1)NC(=O)OC(C)(C)C)C(=O)NCC(=O)OCc1ccccc1 (stereo not drawn) (Boc-Phe-Val-Gly-OBn; configuration not given here) | 32.1 |

System: A498 renal
Assay: inhibition of tumour cell growth, NCI panel, 48 h

| SMILES | TGI [µM] |
| --- | --- |
| Cc1oc2c(c1C)S(=O)(=O)C(C#N)C(c1ccccc1)N2 (stereo unspecified) | > 100 |
| CC(=O)Oc1cc2c(n(C)c1=O)-c1ccccc1C2 | > 100 |
| Nc1nc(N)c2cc(Sc3ccc4nc(N)nc(N)c4c3)ccc2n1 | > 100 |
| N#CC(C#N)N=Cc1ccncc1 | > 100 |
| COc1ccc2c(c1)/C(=C\c1c(C)nc3n1CCS3)C(=O)N2 | 99.6 |
| CN(C)C=C1C(=O)c2c(Br)sc(Br)c2C1=O | 47.8 |
| O=c1[nH]n(Cc2ccccc2Cl)c2ccc([N+](=O)[O-])cc12 | 64.3 |
| COc1cc2c[n+](C)c3c4cc5c(cc4ccc3c2cc1OC)OCO5 | 2.67 |
| CCOC(=O)CCC(NC(=O)c1ccc(CNc2nc3ccccc3nc2C(=O)OCC)cc1)C(=O)OCC (stereo unspecified) | > 100 |
| COC(=O)Nc1nc2ccc(S(=O)(=O)NC(CC(C)C)C(=O)OC)cc2[nH]1 (stereo unspecified) | 28 |
| Cc1cc([C@H](C#N)c2nc3ccccc3[nH]2)nc(Cl)n1 | > 100 |
| OC(CCN1CCCCC1)(c1ccccc1)c1ccccc1 | > 100 |
| COC1CC(C)C(OC)C2=CC(=O)C=C(NC(=O)/C(C)=C/C=C\C(C)C(OC(N)=O)/C(C)=C\C(C)C1OC)C2=O (stereo unspecified) | 24.2 |
| O=C1c2ccccc2C(O)(C(=O)O)C1(O)CC=C(Cl)Cl (stereo unspecified) | > 125 |
| CN(C)C=Nc1cccc2nsnc12 | > 100 |
| CC(=O)O[C@@H]1CC[C@@]2(C)C(CC[C@H]3[C@@H]4CC[C@H]([C@H](C)CCc5nc6ccc(C)cc6[nH]5)[C@@]4(C)CC[C@@H]32)C1 (stereo partly specified) | > 100 |
| COc1cccc(OC/C(N=Cc2cccnc2)=N/NC(=O)c2ccncc2)c1 | > 100 |
| C/C1=C/C(C)CC(C)OC(=O)C(C)NC(=O)C(Cc2ccc(O)c(I)c2)N(C)C(=O)CNC(=O)C(C)C1 (stereo unspecified) | < 0.0134 |
| COC(=O)C(C)NP(=O)(N1CC1)N1CC1 (stereo unspecified) | > 100 |
| Cc1ccc(-n2cnc3c(N)nc(N)nc32)cc1 | > 100 |
| Ic1ncnc2c1ncn2C1CCCO1 (stereo unspecified) | > 100 |
| COc1ccc(Nc2nnc(CCCCCCCCc3nnc(Nc4ccc(OC)cc4)o3)o2)cc1 | > 100 |
| O=c1c(C=Nc2ccccc2Cl)c(O)n(-c2ccccc2)c(=O)n1-c1ccccc1 | > 100 |
| CCOC(=O)NNC(=O)C1CSC(c2ccccc2)N1C(C)=O (stereo unspecified) | > 100 |
| O=[n+]1c2ccccc2n([O-])c2ccccc21 | > 100 |
| CC(C)(C)O/C=C1/C(=O)OC2C[C@@H](O[Si](C)(C)C(C)(C)C)CC12 (stereo partly specified) | > 100 |
| CCCCCCCCCCCCCCCCCCNc1ccn(C2OC(COP(=O)(O)OC3CC(n4cc(F)c(=O)[nH]c4=O)OC3COP(=O)(O)OCC3OC(n4ccc(N)nc4=O)C(O)C3O)C(O)C2O)c(=O)n1 (stereo unspecified) | > 100 |
| CC(C)C(NC(=O)C(Cc1ccccc1)NC(=O)OC(C)(C)C)C(=O)NCC(=O)OCc1ccccc1 (stereo not drawn) (Boc-Phe-Val-Gly-OBn; configuration not given here) | > 100 |

System: A549 NSCLC
Assay: inhibition of tumour cell growth, NCI panel, 48 h

| SMILES | TGI [µM] |
| --- | --- |
| Cc1oc2c(c1C)S(=O)(=O)C(C#N)C(c1ccccc1)N2 (stereo unspecified) | > 100 |
| CC(=O)Oc1cc2c(n(C)c1=O)-c1ccccc1C2 | > 100 |
| Nc1nc(N)c2cc(Sc3ccc4nc(N)nc(N)c4c3)ccc2n1 | > 100 |
